pIC50: −log10 of the molar value. Where two headings read alike, the source gives them in different places.
Experiments:
[1] = system: IL-6 secretion in the human mast cell line HMC 1.1; experiment: IL-6 production inhibition assay (IL-33 stimulated HMC 1.1 cells, IL-6 ELISA); type: cell-based; conditions: 24 hours; for inhibition at 1 µM: 1 μM compound, read-out: Inhibition of hIL-6 production (%) 1 μM; for inhibition at 10 µM: 10 μM compound, read-out: Inhibition of hIL-6 production (%) 10 μM
Summary of the method: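 HMC 1.1 cells stimulated with 200 nM recombinant human IL-33 were exposed 24 hours to compound at 10 μM, 25 μM, 30 μM or 50 μM, among other levels. Secreted IL-6 was quantified by ELISA in triplicate against a standard curve and expressed as % of vehicle.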

[2] = Cellular viability, WST-8 assay, without or with human liver microsomes; type: cell-based
[3] = system: Human liver cancer cell line HepG2 cells; experiment: as above; type: cell-based; conditions: at 100 μM; for Cellular viability (%) (+) microsome: HepG2, with human liver microsomes; for Cellular viability (%) (−) microsome: HepG2, without human liver microsomes
IL33 and ST2 binding [4] = biological target: T1, IL33 and ST2 binding (Homo sapiens, UniProt O95760);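 further: plate ELISA with coated Flag-tagged human IL-33 and His-tagged human ST2, bound ST2 detected by anti-His HRP and TMB absorbance at 450 nm, 2 h compound incubation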
T1 sequence (O95760 112-270 limits assumed): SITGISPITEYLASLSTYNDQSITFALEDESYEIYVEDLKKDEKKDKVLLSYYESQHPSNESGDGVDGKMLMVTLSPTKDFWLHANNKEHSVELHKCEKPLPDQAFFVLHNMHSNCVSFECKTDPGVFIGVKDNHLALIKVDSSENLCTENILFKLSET

IL33 and ST2 binding [5] = biological target: T1, IL33 and ST2 binding; experiment: biochemical
[6] = HepG2, with human liver microsomes, read-out: CC50 (μM) (+) microsome
[7] = HepG2 cells, HepG2, without human liver microsomes, read-out: CC50 (μM) (−) microsome

inhibition (IL33 and ST2 binding [4]; 30 µM) [%] | inhibition (IL33 and ST2 binding [4]; 100 µM) [%] | pIC50 (IL33 and ST2 binding [5]) | Compound | inhibition at 1 µM [1] [%] | inhibition at 10 µM [1] [%] | CC50 at 24 h [2, 6] [µM] | CC50 at 24 h [2, 7] [µM] | Cellular viability (%) (+) microsome [3] [at %] | Cellular viability (%) (−) microsome [3] [at %]
107 | 108 | 5.77 | CCOC(=O)c1nc(-c2ccc(C(F)(F)F)cc2)oc1-c1cccc([N+](=O)[O-])c1 [Compound 33, Ethyl 5-(3-nitrophenyl)-2-(4-(trifluoromethyl)phenyl)oxazole-4-carboxylate] | 30 | 32 | 43.5 | 67 | 68 | 73
101 | 104 | 5.50 | CC(=O)N1CCN(CCNC(=O)c2nc(-c3ccc(C(F)(F)F)cc3)oc2-c2ccccc2[N+](=O)[O-])CC1 [Compound 284, N-(2-(4-acetylpiperazin-1-yl)ethyl)-5-(2-nitrophenyl)-2-(4-(trifluoromethyl)phenyl)oxazole-4-carboxamide] | 27 | 39 | 46.5 | 48.6 | 49 | 40
81 | 97 | 5.19 | CN(C)CCNC(=O)c1nc(-c2ccc(C#N)cc2)oc1-c1ccccc1 [Compound 249, 2-(4-Cyanophenyl)-N-(2-(dimethylamino)ethyl)-5-phenyloxazole-4-carboxamide] | 8 | 35 | 29.1 | 19 | 50 | 43

Compound | inhibition (IL33 and ST2 binding [4]; 30 µM) [%] | inhibition (IL33 and ST2 binding [4]; 100 µM) [%] | pIC50 (IL33 and ST2 binding [5]) | inhibition at 1 µM [1] [%] | inhibition at 10 µM [1] [%] | CC50 at 24 h [2, 6] [µM] | CC50 at 24 h [2, 7] [µM] | Cellular viability (%) (+) microsome [3] [at %] | Cellular viability (%) (−) microsome [3] [at %]
CN(C)CCNC(=O)c1nc(-c2ccc([N+](=O)[O-])cc2)oc1-c1ccccc1[N+](=O)[O-] [Compound 277, N-(2-(Dimethylamino)ethyl)-5-(2-nitrophenyl)-2-(4-nitrophenyl)oxazole-4-carboxamide] | 60 | 111 | 4.84 | 27 | 31 | 46.2 | 25.4 | 49 | 46

Reference: patent publication US20240287052A1, “NOVEL OXAZOLE DERIVATIVE AND PHARMACEUTICAL COMPOSITION FOR PREVENTING OR TREATING ALLERGIC DISEASES COMPRISING THE SAME” (AZCURIS CO., LTD., priority 2021, published 2024)
